In ChEMBL document CHEMBL5725356, “Anti-fibrotic pyridinones” (2017) one finds EC50 data, which are given here for 37 compounds.

Each structure is given as a SMILES string.

The assay is described as follows: ET-1 Assay: Fibroblasts (primary human lung and dermal, HFL-1, 3T3 etc) are seeded in 96-well plates at ~15000 cells/well and serum starved for 0-48 hours. After media exchange, compounds serially diluted in DMSO are added to the cells. After a brief incubation of ~30 min, stimulants (TGFb, serum, LPA etc) are added followed by further incubation for 16-48 hours. Media is then harvested and stored frozen in plate format for later endothelin-1 (ET-1) determination by ELISA. Toxicity measurements are made using the ATPlite kit (Perkin-Elmer). ET-1 is quantified using an ELISA kit (R&D Systems). The amount of ET-1 produced in the assay wells are back-calculated using the ELISA standard. The ability of a compound to inhibit ET-1 production is typically analyzed by fitting dose-response curves to a 4-parameter logistic function to obtain an EC50 value. To be noted: HFL1.
As to `CCOc1ccc(-n2cc(-c3cnn(C)c3)c(NCc3ccc(F)cc3F)cc2=O)c(C)c1`, the EC50 (commonly the concentration at which the effect is half-maximal) was below 50 µM.
Next, `Cc1n[nH]c(C)c1-c1ccc(=O)n(-c2ccc(F)cc2)c1`: above 200 µM.
Take `CCOc1ccc(-n2cc(Br)ccc2=O)c(C)c1`: the 50% effective concentration (EC50) was above 200 µM.
The result for `O=c1c2ncn(Cc3ccccc3)c2c(-c2ccc(F)cc2)cn1-c1ccc(OC(F)(F)F)cc1` reads above 200 µM; that for `CCn1ccc2c(-c3ccc(F)cc3)c[nH]c(=O)c21`, below 50 µM; that for `O=C(Nc1cc(=O)n(-c2ccc(OC(F)(F)F)cc2)cc1-c1ccc(F)cc1)OCc1ccccc1`, above 200 µM.
The result for `Cc1ccccc1-n1cc(-c2cnn(C)c2)ccc1=O` reads above 200 µM; that for `CCn1cnc2c(-c3cnn(C)c3)cn(-c3ccc(OC(F)(F)F)cc3)c(=O)c21`, below 50 µM; that for `O=c1ccc(-c2ccnnc2)cn1-c1ccc(OC(F)(F)F)cc1`, “in the range around 125 µM”.
Regarding `CCCNC(=O)Nc1cc(=O)n(-c2ccc(OC(F)(F)F)cc2)cc1-c1ccc(F)cc1`, the EC50 is above 200 µM.
As to `O=c1ccc(-c2cncnc2)cn1-c1cccc(F)c1`, the EC50 is above 200 µM.
Next, `O=c1c2nccnc2c(-c2cn[nH]c2)cn1-c1ccc(OC(F)(F)F)cc1`: below 50 µM; `O=C(NCc1ccccc1)c1cc(=O)n(-c2ccc(OC(F)(F)F)cc2)cc1-c1ccc(F)cc1`: above 200 µM; `COCCOc1cc(=O)n(-c2ccc(OC(F)(F)F)cc2)cc1-c1cnn(C)c1`: above 200 µM.
Take `Cc1cc(=O)n(-c2cccc(C(F)(F)F)c2)cc1-c1ccc(F)cc1`: the EC50 result is “in the range around 125 µM”.
Next, `CS(=O)(=O)n1cc(-c2ccc(=O)n(-c3ccccc3)c2)cn1`: above 200 µM; `Cc1cc(=O)n(-c2ccc(NC(N)=O)cc2)cc1-c1ccc(F)cc1`: “in the range around 125 µM”; `Cn1cc(-c2cn(-c3ccc(OC(F)(F)F)cc3)c(=O)cc2NCc2ccc(Cl)cc2Cl)cn1`: below 50 µM.
Next, `Cc1cc(=O)n(-c2ccc(OC(F)(F)F)cc2)cc1-c1ccc2c(c1)N(C)C(=O)CO2`: below 50 µM.
The result for `Cc1cc(=O)n(-c2ccc(OC(F)(F)F)cc2)cc1-c1ccc(F)cc1` reads above 200 µM.
In the case of `Cn1cc(-c2cn(-c3ccc(OC(F)(F)F)cc3)c(=O)c3cc[nH]c23)cn1`, the EC50 was below 50 µM.
The result for `O=c1ccc(-c2ccccc2)cn1-c1cccc(F)c1` reads above 200 µM; that for `Cc1cc(=O)n(-c2ccc(C(F)(F)F)cc2)cc1-c1ccc(F)cc1`, above 200 µM.
Next, `COc1cc(-n2cc(-c3cnn(C)c3)c(C)cc2=O)cc(OC)c1OC`: above 200 µM.
Consider `CCOc1ccc(-n2cc(-c3ccnnc3)c(C)cc2=O)c(C)c1`, for which the EC50 was below 50 µM.
The result for `Cc1n[nH]c(C)c1-c1ccc(=O)n(-c2ccc(OC(F)(F)F)cc2)c1` reads “in the range around 125 µM”; that for `O=c1ccc(-c2cn[nH]c2)cn1-c1cccc(F)c1`, above 200 µM.
The result for `O=c1ccc(C2CCCC2)cn1-c1ccccc1` reads “in the range around 125 µM”; that for `Cn1cc(-c2cn(-c3ccc(OC(F)(F)F)cc3)c(=O)cc2O)cn1`, above 200 µM; that for `O=c1ccc(C(F)(F)F)cn1-c1ccc(OC(F)(F)F)cc1`, above 200 µM.
On to `O=c1cc(O)c(-c2ccc(F)cc2)cn1-c1ccc(OC(F)(F)F)cc1`, for which the EC50 result is “in the range around 125 µM”.
Next, `CCOc1ccc(-n2cc(-c3ccc4scnc4c3)c(C)cc2=O)c(C)c1`: above 200 µM; `Cc1n[nH]c(C)c1-c1ccc(=O)n(-c2ccc(OC(C)C)cc2)c1`: “in the range around 125 µM”; `CNc1cc(=O)n(-c2ccc(OC(F)(F)F)cc2)cc1-c1cnn(C)c1`: above 200 µM.
In the case of `Cc1cc(=O)n(-c2ccccc2C)cc1-c1ccc(F)cc1`, the EC50 result was “in the range around 125 µM”.
The result for `O=c1ccc(-c2ccc(F)cc2)cn1Cc1ccccc1` reads below 50 µM.
Next, `CC(C)OC(=O)Nc1cc(=O)n(-c2ccc(OC(F)(F)F)cc2)cc1-c1cnn(C)c1`: above 200 µM.
